Results on one compound are retold here after ChEMBL document CHEMBL5614419, “Discovery of novel BCL6-Targeting PROTACs with effective antitumor activities against DLBCL in vitro and in vivo” (Eur J Med Chem, 2024).

SMILES strings stand for the structures. Active and inactive are the calls of the source.

Series [1] relates to SUD4. In words: Synergistic antiproliferative activity against human SU-DHL-4 cells assessed as combination index measured after 6 days in presence of Ibrutinib by MTT assay. The note with it: time 6 day. It counts as functional.
A short description of series [2]: MRT (0 to t) in male Sprague-Dawley rat at 20 mg/kg, po measured upto 24 hrs by LC-MS/MS analysis. It counts as ADME, organism-based. The note with it: in vivo.
Series [3] can be described thus: Tmax in male Sprague-Dawley rat at 20 mg/kg, po measured upto 24 hrs by LC-MS/MS analysis. The format is ADME, organism-based. The note with it: in vivo.
In series [4] the target is T1, Protein cereblon/B-cell lymphoma 6 protein (Homo sapiens, UniProt Q96SW2+P41182). Nature of the series: PROTAC activity at CRBN/BCL6 in human SU-DHL-4 cells assessed as induction of BCL6 degradation at 5 uM preincubated with MG-132 for 2 hrs followed by compound addition and measured after 36 hrs by Western blot analysis. It counts as cell-based. A general note: In western blotting, separated proteins are transferred to a membrane and probed.
T1 sequence (Q96SW2 whole entry, looked up, other chains not shown): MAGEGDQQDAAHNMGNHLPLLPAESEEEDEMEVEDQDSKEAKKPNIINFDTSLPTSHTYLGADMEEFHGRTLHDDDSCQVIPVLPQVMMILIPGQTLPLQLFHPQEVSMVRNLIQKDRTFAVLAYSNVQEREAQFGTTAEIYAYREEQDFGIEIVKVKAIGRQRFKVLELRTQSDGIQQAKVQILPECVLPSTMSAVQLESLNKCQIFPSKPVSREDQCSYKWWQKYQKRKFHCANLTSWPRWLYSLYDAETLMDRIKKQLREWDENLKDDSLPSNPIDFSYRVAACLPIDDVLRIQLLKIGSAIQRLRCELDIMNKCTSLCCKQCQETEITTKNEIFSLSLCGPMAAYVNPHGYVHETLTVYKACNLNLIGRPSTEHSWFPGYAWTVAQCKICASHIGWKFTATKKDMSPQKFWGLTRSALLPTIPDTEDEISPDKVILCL

Series [5] has as its system SUD4. Nature of the series: Upregulation of p27 protein level in human SU-DHL-4 cells at 5 uM preincubated for 48 hrs followed by compound elution and measured after 72 hrs by Western blot analysis. The format is functional, cell-based.
Series [6] is described as follows: AUC (0 to infinity) in male Sprague-Dawley rat at 10 mg/kg, ip measured upto 24 hrs by LC-MS/MS analysis. It counts as ADME, organism-based. The note with it: in vivo.
The nature of series [7]: Toxicity in female nude nu/nu mouse model xenografted with human SU-DHL-4 cells assessed as body weight loss at 10 to 40 mg/kg, ip measured after 21 days. The note with it: in vivo, 504 h, dose 10-40 mg/kg, time 21 day. The format is organism-based, SUD4. Background: In xenograft studies the graft and the host belong to different species.
For series [8], the target named is T1, Protein cereblon/B-cell lymphoma 6 protein. In words: PROTAC activity at CRBN/BCL6 in human DOHH-2 cells assessed as induction of BCL6 degradation by measuring maximal efficacy incubated for 48 hrs by Western blot analysis relative to control. It counts as cell-based.
Series [9] is described as follows: AUC (0 to t) in male Sprague-Dawley rat at 20 mg/kg, po measured upto 24 hrs by LC-MS/MS analysis. It counts as ADME, organism-based. The note with it: in vivo.
The subject of series [10] is DOHH-2. In words: Induction of cell cycle arrest in human DOHH-2 cells assessed as G1 phase arrest at 500 nM in presence of Ibrutinib incubated for 72 hrs by flow cytometry. The format is functional, cell-based. In general terms: A flow cytometer gives signals particle by particle.
For series [11], the target named is T1, Protein cereblon/B-cell lymphoma 6 protein. Nature of the series: In vivo PROTAC activity at CRBN/BCL6 in female nude nu/nu mouse model xenografted with human SU-DHL-4 cells assessed as downregulation of BCL6 protein level in tumor at 40 mg/kg, ip measured after 5 hrs of last dose by Western blot analysis. The format is functional, organism-based. The note with it: SUD4.

For series [12], the system named is Ibrutinib resistant DOHH2 cell. Nature of the series: Upregulation of p21 protein level in human Ibrutinib resistant DOHH2 cells at 0.1 to 10 uM incubated for 48 hrs by Western blot analysis. It counts as functional, cell-based. The note with it: dose 0.1-10 µM.
Series [13] can be described thus: Half life in male Sprague-Dawley rat at 20 mg/kg, po measured upto 24 hrs by LC-MS/MS analysis. The note with it: in vivo. It counts as ADME, organism-based.
A further series concerns OCI-Ly1. In words: Antiproliferative activity against BCL6-dependent human OCI-Ly1 cells assessed as inhibition in cell growth measured after 6 days by MTT assay. The note with it: OCI-Ly1, 144 h.
Series [14] has as its system SUD4. Nature of the series: Upregulation of CDKN1A mRNA level in human SU-DHL-4 cells at 10 uM incubated for 48 hrs by RT-qPCR analysis. It counts as functional, cell-based.
Series [15] concerns SUD4. Nature of the series: Effect on BCL6 mRNA level in human SU-DHL-4 cells at 10 uM incubated for 48 hrs by RT-qPCR analysis. The format is functional, cell-based.
In series [16] the test system is DOHH-2. In words: Synergistic antiproliferative activity against human DOHH-2 cells assessed as combination index measured after 6 days in presence of Ibrutinib by MTT assay. It counts as functional. The note with it: time 6 day.
Series [17] deals with T1, Protein cereblon/B-cell lymphoma 6 protein. In words: PROTAC activity at CRBN/BCL6 in human Ibrutinib resistant DOHH2 cells assessed as induction of BCL6 degradation at 0.1 to 10 uM incubated for 48 hrs by Western blot analysis. It counts as cell-based. The note with it: dose 0.1-10 µM.
Series [18] deals with SUD4. In words: Antiproliferative activity against BCL6-dependent human SU-DHL-4 cells assessed as inhibition of cell growth at 1 uM measured after 6 days by MTT assay relative to control. The format is functional. The note with it: SU-DHL-4, 144 h, time 6 day.
In series [19] the target is T1, Protein cereblon/B-cell lymphoma 6 protein. Nature of the series: PROTAC activity at CRBN/BCL6 in BCL6-dependent human SU-DHL-4 cells assessed as induction of BCL6 degradation by measuring degradation rate at 10 uM incubated for 48 hrs by Western blot analysis relative to control. The format is cell-based.
For series [20] the target is unchanged. Nature of the series: PROTAC activity at CRBN/BCL6 in human SU-DHL-4 cells assessed as induction of BCL6 degradation by measuring reduction in protein level at 5 uM measured upto 72 hrs by Western blot analysis. It counts as cell-based.
Series [21] has as its system SUD4. Nature of the series: Induction of cell cycle arrest in human SU-DHL-4 cells assessed as increase in G1 phase cell population at 1 uM measured after 72 hrs by flow cytometry analysis (reference value: 61.4%). It counts as functional.

One may read the MRT last as the average time that molecules of a dose stay in the body. The Tmax is the time at which the peak concentration occurs. In general, AUC(0-inf) refers to total exposure, with the tail of the curve extrapolated. Low values mean low exposure, high ones high exposure. The Emax is the size of the effect at its maximum, as opposed to the concentration needed. In general, AUC(0-t) refers to the area under the concentration-time curve up to a stated or last time point. Low values mean low exposure, high ones high exposure. The term half-life denotes the time needed for the level to fall by half in the phase considered. The low end stands for rapid decline, the high end for slow decline. As usually defined, the IC50 is the concentration that inhibits the measured activity by half. By inhibition is commonly meant the relative decrease from the control value, in per cent. As to `COc1cc(Nc2nc(N3CCN(CCOCCNc4cccc5c4C(=O)N(C4CCC(=O)NC4=O)C5=O)CC3)ncc2F)ccc1NC(=O)c1ccc(C2=CCCC2)s1` (configuration not stated), the CI with SUD4 [1] stood at 0.5; in the series with DOHH-2 [16], 0.2. For the same compound, in series [2], the MRT last at 24 h turned out to be 2.48 h. The Tmax in series [3] was determined as 1 h. The result (in series [4]; with SUD4 [15]) was inactive. The outcome (in the series on SUD4 [5]; in the series with DOHH-2 [10]; in [11]; in [12]; in the series with SUD4 [14]; in series [17]) was Active. Also, the result in series [20] was Active. This compound also showed an AUC(0-inf) in series [6] of 33900 ng·h/mL. Moreover, the Activity result in [7] was “Non-Toxic”; in [19], 94.4%; with SUD4 [21] it was 86.7%. Further, the Emax in series [8] amounted to 93.7%. The compound further registered an exposure AUC(0-t) at 24 h in series [9] of 2290 ng·h/mL. In series [13], this compound showed a half-life of 1.06 h. Further, the concentration for half-maximal inhibition (IC50) in the series with OCI-Ly1 was 1370 nM. For the same compound, the inhibition at 1 µM in the series with SUD4 [18] worked out at 66.1%.
